Test system: Acinetobacter baumannii-calcoaceticus species complex clinical isolates
Assay: MIC of triple combinations (Compound 1, sulbactam, meropenem or cefepime), 141 clinical isolates
Format: cell-based
Conditions: Cmpd 1 at 4 μg/mL in combinations
Description: For a more comprehensive assessment of the ability of test compounds to potentiate sulbactam in triple combinations with β-lactams additional MIC assays were utilized.

- MIC (strain 993131): 64 µg/mL
- MIC (strain 994180): 2 µg/mL
- MIC (strain 995771): 256 µg/mL
- MIC (strain 996612): 32 µg/mL
- MIC (strain 996869): >256 µg/mL
- MIC (strain 997574): 256 µg/mL
- MIC (strain 998107): 64 µg/mL
- MIC (strain 998532): 256 µg/mL
- MIC (strain 998898): 32 µg/mL
- MIC (strain 998907): 16 µg/mL
- MIC (strain 999306): 2 µg/mL
- MIC (strain 1001007): 256 µg/mL
- MIC (strain 1001611): 32 µg/mL
- MIC (strain 1002208): 64 µg/mL
- MIC (strain 1002952): >256 µg/mL
- MIC (strain 1002960): >256 µg/mL
- MIC (strain 1003557): 256 µg/mL
- MIC (strain 1003787): >256 µg/mL
- MIC (strain 1008508): >256 µg/mL
- MIC (strain 1008510): 256 µg/mL
- MIC (strain 1010245): 64 µg/mL
- MIC (strain 1010331): 64 µg/mL
- MIC (strain 1011959): 64 µg/mL
- MIC (strain 1013022): 256 µg/mL
- MIC (strain 1013035): 256 µg/mL
- MIC (strain 1013055): 32 µg/mL
- MIC (strain 1013322): 64 µg/mL
- MIC (strain 1014143): 8 µg/mL
- MIC (strain 1014646): 64 µg/mL
- MIC (strain 1014815): 256 µg/mL
- MIC (strain 1014866): 64 µg/mL
- MIC (strain 1014870): 256 µg/mL
- MIC (strain 1014878): 64 µg/mL
- MIC (strain 1018109): 0.25 µg/mL
- MIC (strain 1018801): 256 µg/mL
- MIC (strain 1018802): 256 µg/mL
- MIC (strain 1018807): 64 µg/mL
- MIC (strain 1018851): 256 µg/mL
- MIC (strain 1019086): 256 µg/mL
- MIC (strain 1023031): >256 µg/mL
- MIC (strain 1023034): 64 µg/mL
- MIC (strain 1023074): 32 µg/mL
- MIC (strain 1023207): 32 µg/mL
- MIC (strain 1023329): 64 µg/mL
- MIC (strain 1024119): 4 µg/mL
- MIC (strain 1026990): 256 µg/mL
- MIC (strain 1026992): 32 µg/mL
- MIC (strain 1027234): 64 µg/mL
- MIC (strain 1027590): 256 µg/mL
- MIC (strain 1027603): 64 µg/mL
- MIC (strain 1027748): 32 µg/mL
- MIC (strain 1028193): >256 µg/mL
- MIC (strain 1029770): >256 µg/mL
- MIC (strain 1029913): 32 µg/mL
- MIC (strain 1030427): 256 µg/mL
- MIC (strain 1031167): 256 µg/mL
- MIC (strain 1031191): 64 µg/mL
- MIC (strain 1031211): 64 µg/mL
- MIC (strain 1031238): 256 µg/mL
- MIC (strain 1032669): 64 µg/mL
- MIC (strain 1032761): 256 µg/mL
- MIC (strain 1033340): 256 µg/mL
- MIC (strain 1033979): 256 µg/mL
- MIC (strain 1034048): 256 µg/mL
- MIC (strain 1034912): 64 µg/mL
- MIC (strain 1034913): 64 µg/mL
- MIC (strain 1034916): 64 µg/mL
- MIC (strain 1034925): 64 µg/mL
- MIC (strain 1034962): 64 µg/mL
- MIC (strain 1035144): 256 µg/mL
- MIC (strain 1035788): 64 µg/mL
- MIC (strain 1035794): 32 µg/mL
- MIC (strain 1035808): 16 µg/mL
- MIC (strain 1035825): 64 µg/mL
- MIC (strain 1036045): 64 µg/mL
- MIC (strain 1036068): 64 µg/mL
- MIC (strain 1036734): 64 µg/mL
- MIC (strain 1036768): 8 µg/mL
- MIC (strain 1036781): >256 µg/mL
- MIC (strain 1036859): 64 µg/mL
- MIC (strain 1036882): 256 µg/mL
- MIC (strain 1036921): 1 µg/mL
- MIC (strain 1037193): >256 µg/mL
- MIC (strain 1037211): 2 µg/mL
- MIC (strain 1037251): 64 µg/mL
- MIC (strain 1037256): 64 µg/mL
- MIC (strain 1037479): 256 µg/mL
- MIC (strain 1037593): 256 µg/mL
- MIC (strain 1037618): 1 µg/mL
- MIC (strain 1037714): 256 µg/mL
- MIC (strain 1037731): 0.5 µg/mL
- MIC (strain 1037732): 256 µg/mL
- MIC (strain 1037738): >256 µg/mL
- MIC (strain 1037747): 256 µg/mL
- MIC (strain 1038418): 0.25 µg/mL
- MIC (strain 1038439): 0.25 µg/mL
- MIC (strain 1039502): 64 µg/mL
- MIC (strain 1039518): 64 µg/mL
- MIC (strain 1040900): 64 µg/mL
- MIC (strain 1040901): 64 µg/mL
- MIC (strain 1042182): 64 µg/mL
SMILES: C[C@@H](O)[C@H]1C(=O)N2C(C(=O)O)=C(S[C@@H]3CN[C@H](C(=O)N(C)C)C3)[C@H](C)[C@H]12 [MEM]

Reference: patent US20220054513A1, “COMBINATION COMPOSITIONS COMPRISING A BETA-LACTAMASE INHIBITOR” (VenatoRx Pharmaceuticals, Inc., priority 2018, published 2022)
